Blank lines part the entries; values can stand above or below the compound they belong to.
Columns and labels:
[1] = target: Mushroom tyrosinase (Agaricus bisporus, UniProt C7FF04); assay: Mushroom tyrosinase inhibitory activity (L-tyrosine substrate, OD 475 nm); format: biochemical
Experimental: Mushroom tyrosinase (Sigma-Aldrich Co., St. Louis, MO, USA) was used for in vitro assays with slight modifications from a previously described method. […] After 5 min incubation at room temperature, 0.1 mL L-tyrosine (2 mM) was added and incubated for additional 20 min.

[2] = test system: tyrosinase; set-up: method as in PMID 30871862; conditions: against both monophenolase and diphenolase; cited from earlier work

Sequence of Mushroom tyrosinase (C7FF04 2-392): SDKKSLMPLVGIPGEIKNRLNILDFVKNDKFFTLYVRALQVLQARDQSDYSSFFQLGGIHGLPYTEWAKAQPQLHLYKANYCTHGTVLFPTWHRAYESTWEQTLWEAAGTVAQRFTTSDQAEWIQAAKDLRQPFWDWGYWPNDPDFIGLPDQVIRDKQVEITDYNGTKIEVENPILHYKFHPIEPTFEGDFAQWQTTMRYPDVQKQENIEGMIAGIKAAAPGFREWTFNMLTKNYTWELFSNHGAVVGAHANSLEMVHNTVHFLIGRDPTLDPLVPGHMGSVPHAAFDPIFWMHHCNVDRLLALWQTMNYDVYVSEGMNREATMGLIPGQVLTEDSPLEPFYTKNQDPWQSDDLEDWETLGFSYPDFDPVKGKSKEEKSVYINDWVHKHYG
Sequence of Mushroom tyrosinase (G1K3P4 entry or part of it, further chain): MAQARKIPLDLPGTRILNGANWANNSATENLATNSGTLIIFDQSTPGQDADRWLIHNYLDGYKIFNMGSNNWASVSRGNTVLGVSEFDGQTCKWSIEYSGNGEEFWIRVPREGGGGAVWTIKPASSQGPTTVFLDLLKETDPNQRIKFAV

Structure (SMILES): OC[C@H]1O[C@@H](Oc2ccc(O)cc2)[C@H](O)[C@@H](O)[C@@H]1O [Arbutin, reference compound]
inhibition at 2300 µg/mL ([1]; concentration 2300 μg/mL, positive control): 50 ± 2.1%

IC50 ([1]; non-irradiated and irradiated silybin samples, arbutin positive control, L-tyrosine 2 mM, pH 6.5): >200 µg/mL | Inhibition of Tyrosinase (%) ([1]; sample concentration 50 μg/mL, L-tyrosine 2 mM, pH 6.5): 5.2 ± 0.2% | Inhibition of Tyrosinase (%) ([1]; sample concentration 100 μg/mL, L-tyrosine 2 mM, pH 6.5): 11.4 ± 0.5% | Inhibition of Tyrosinase (%) ([1]; sample concentration 200 μg/mL, L-tyrosine 2 mM, pH 6.5): 26.5 ± 0.8%
Structure (SMILES): COc1cc(C2Oc3cc([C@H]4Oc5cc(O)cc(O)c5C(=O)[C@@H]4O)ccc3OC2CO)ccc1O (stereo partly drawn) [Compound 0]

Structure (SMILES): COc1cc(C2Oc3cc([C@H]4Oc5cc(O)cc(O)c5C(=O)[C@@H]4O)ccc3OC2CO)ccc1O (stereo partly drawn) [silybin (1), silybin]
type of tyrosinase inhibition [2]: mixed type I (KI < KIS) inhibition

Source: publication PMC11596366, “Silybin Derivatives Produced by γ-Irradiation and Their Tyrosinase Inhibitory Activities” (Molecules, 2024)
